Data as given in ChEMBL document CHEMBL5385876, “Discovery of unglycosylated indolocarbazoles as ROCK2 isoform-selective inhibitors for the treatment of breast cancer metastasis” (Eur J Med Chem, 2023).

Each molecule was assayed against Rho-associated protein kinase 2 (Homo sapiens, UniProt O75116) (assay: Inhibition of N-terminal His10-StrepII tagged human ROCK2 catalytic domain (1 to 553 residues) expressed in Sf9 insect cells by HTRF assay).
Sequence of Rho-associated protein kinase 2 (O75116 whole entry, the tested form may be a part): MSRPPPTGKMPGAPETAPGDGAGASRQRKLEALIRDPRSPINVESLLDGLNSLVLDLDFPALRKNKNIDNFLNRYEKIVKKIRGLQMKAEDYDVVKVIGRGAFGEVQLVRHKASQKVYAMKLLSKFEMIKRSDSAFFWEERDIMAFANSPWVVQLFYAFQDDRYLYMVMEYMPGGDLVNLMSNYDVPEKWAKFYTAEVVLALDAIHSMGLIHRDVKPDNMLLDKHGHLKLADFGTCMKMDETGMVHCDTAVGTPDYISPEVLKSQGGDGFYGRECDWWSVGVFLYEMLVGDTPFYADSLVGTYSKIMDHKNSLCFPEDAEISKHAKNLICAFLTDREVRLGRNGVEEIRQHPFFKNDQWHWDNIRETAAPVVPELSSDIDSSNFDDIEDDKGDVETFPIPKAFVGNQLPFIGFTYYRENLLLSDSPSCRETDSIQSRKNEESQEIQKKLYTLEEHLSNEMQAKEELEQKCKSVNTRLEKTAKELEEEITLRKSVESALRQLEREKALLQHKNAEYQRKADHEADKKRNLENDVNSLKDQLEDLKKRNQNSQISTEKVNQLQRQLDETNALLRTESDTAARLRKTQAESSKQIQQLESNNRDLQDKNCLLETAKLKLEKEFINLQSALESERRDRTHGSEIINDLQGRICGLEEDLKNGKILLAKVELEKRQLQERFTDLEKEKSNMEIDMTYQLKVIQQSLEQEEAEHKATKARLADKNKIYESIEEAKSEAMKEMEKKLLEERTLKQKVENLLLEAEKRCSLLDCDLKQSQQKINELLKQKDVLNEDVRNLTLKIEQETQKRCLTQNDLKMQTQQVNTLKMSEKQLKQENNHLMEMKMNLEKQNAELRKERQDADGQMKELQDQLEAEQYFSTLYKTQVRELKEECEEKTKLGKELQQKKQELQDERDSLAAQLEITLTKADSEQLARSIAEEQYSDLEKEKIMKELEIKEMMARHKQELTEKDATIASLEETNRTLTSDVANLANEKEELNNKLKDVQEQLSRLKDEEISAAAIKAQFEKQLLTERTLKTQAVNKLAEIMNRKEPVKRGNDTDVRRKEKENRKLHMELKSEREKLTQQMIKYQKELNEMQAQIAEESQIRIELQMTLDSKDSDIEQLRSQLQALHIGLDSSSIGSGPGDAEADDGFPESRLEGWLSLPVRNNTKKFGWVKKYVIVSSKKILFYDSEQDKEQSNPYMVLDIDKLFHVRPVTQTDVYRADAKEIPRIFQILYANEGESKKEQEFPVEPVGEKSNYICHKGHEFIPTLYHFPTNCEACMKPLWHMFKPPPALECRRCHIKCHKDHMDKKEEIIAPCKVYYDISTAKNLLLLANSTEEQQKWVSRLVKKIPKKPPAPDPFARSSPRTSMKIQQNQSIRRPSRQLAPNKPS

Question: For `CO[C@H]1[C@@H](N2CC[C@@H](O)C2=O)C[C@H]2O[C@@]1(C)n1c3ccccc3c3c4c(c5c6ccccc6n2c5c31)C(=O)NC4` (racemic), which IC50 is on record?
Answer: Its IC50 is 260 nM.

Question: For `C[C@H]1O[C@@H]2C[C@](O)([C@@H]1O)n1c3ccccc3c3c4c(c5c6ccccc6n2c5c31)C(=O)NC4`, which IC50 is on record?
Answer: The IC50 was greater than 500 nM.

Question: Which IC50 does the source give for `O=C1NCc2c1c1c3ccccc3[nH]c1c1[nH]c3cc(O)ccc3c21` here?
Answer: Its IC50 is 200 nM.

Question: How did the IC50 turn out when `C[C@]12O[C@H](C[C@]1(O)C(=O)O)n1c3ccccc3c3c4c(c5c6ccccc6n2c5c31)CNC4=O` was run?
Answer: Its IC50 is greater than 500 nM.

Question: `COc1cc(/C=C(/C(N)=O)n2c3ccccc3c3c4c(c5c6ccccc6[nH]c5c32)CNC4=O)ccc1O` was tested. Which IC50 did it give?
Answer: The IC50 was 2120 nM.

Question: With `O=C1NC(=O)c2c1c1c3ccccc3[nH]c1c1[nH]c3c(O)cccc3c21` as the molecule, how does the IC50 read?
Answer: Its IC50 is greater than 500 nM.

Question: With `O=C1NC(=O)c2c1c1c3cc(O)ccc3[nH]c1c1[nH]c3ccc(O)cc3c21` as the molecule, how does the IC50 read?
Answer: The IC50 was 7 nM.

Question: With `Cn1c2ccccc2c2c3c(c4c5ccccc5[nH]c4c21)C(=O)NC3` as the molecule, how does the IC50 read?
Answer: The IC50 was 550 nM.

Question: `CO[C@@H]1[C@@H](O)C[C@H]2O[C@]1(C)n1c3ccccc3c3c4c(c5c6ccccc6n2c5c31)C(=O)NC4` was tested. Which IC50 did it give?
Answer: Its IC50 is 720 nM.

Question: With `CC(C)(C)c1ccc2[nH]c3c4[nH]c5ccccc5c4c4c(c3c2c1)C(=O)NC4` as the molecule, how does the IC50 read?
Answer: Its IC50 is greater than 500 nM.

Question: How did the IC50 turn out when `CO[C@@H]1[C@H](NC(=O)C(=O)c2c[nH]c3ccccc23)C[C@H]2O[C@]1(C)n1c3ccccc3c3c4c(c5c6ccccc6n2c5c31)C(=O)NC4` was run?
Answer: The IC50 was 4780 nM.

Question: How did the IC50 turn out when `O=C1NCc2c1c1c3ccccc3[nH]c1c1[nH]c3c(O)cccc3c21` was run?
Answer: The IC50 was greater than 500 nM.

Question: Which IC50 does the source give for `C[C@@H]1O[C@@H](n2c3ccccc3c3c4c(c5c6ccccc6[nH]c5c32)C(=O)NC4=O)C[C@@H](NC=O)[C@H]1O` here?
Answer: Its IC50 is 250 nM.

Question: `COC1NC(=O)c2c1c1c3ccccc3[nH]c1c1[nH]c3ccc(O)cc3c21` (stereo unspecified) was tested. Which IC50 did it give?
Answer: Its IC50 is 320 nM.

Question: For `CO[C@@H]1/C(=N/O)C[C@H]2O[C@]1(C)n1c3ccccc3c3c4c(c5c6ccccc6n2c5c31)C(=O)NC4`, which IC50 is on record?
Answer: Its IC50 is greater than 500 nM.

Question: `CN1Cc2c(c3c4ccccc4[nH]c3c3[nH]c4ccccc4c23)C1=O` was tested. Which IC50 did it give?
Answer: The IC50 was 510 nM.

Question: `CO[C@@H]1[C@H](N(C)C(C)=O)C[C@H]2O[C@]1(C)n1c3ccccc3c3c4c(c5c6ccccc6n2c5c31)C(=O)NC4` was tested. Which IC50 did it give?
Answer: Its IC50 is 570 nM.

Question: How did the IC50 turn out when `CC(C)(C)c1ccc2[nH]c3c4[nH]c5ccccc5c4c4c(c3c2c1)C(=O)NC4=O` was run?
Answer: Its IC50 is greater than 500 nM.

Question: Which IC50 does the source give for `C[C@]12O[C@H](C[C@@H](N)[C@H]1O)n1c3ccccc3c3c4c(c5c6ccccc6n2c5c31)CNC4=O` here?
Answer: The IC50 was 35 nM.

Question: For `COc1ccc2[nH]c3c4[nH]c5ccc(O)cc5c4c4c(c3c2c1)CNC4=O`, which IC50 is on record?
Answer: The IC50 was 120 nM.

Question: `C[C@@H]1O[C@@H](n2c3ccccc3c3c4c(c5c6ccccc6[nH]c5c32)C(=O)NC4=O)[C@H](O)[C@H](O)[C@H]1O` was tested. Which IC50 did it give?
Answer: Its IC50 is greater than 500 nM.

Question: How did the IC50 turn out when `CO[C@@H]1[C@@H](O)[C@@H](O)[C@H]2O[C@]1(C)n1c3ccccc3c3c4c(c5c6ccccc6n2c5c31)C(=O)N[C@H]4O` was run?
Answer: Its IC50 is greater than 500 nM.

Question: `CO[C@H]1C(=O)C[C@H]2O[C@]1(C)n1c3ccccc3c3c4c(c5c6ccccc6n2c5c31)C(=O)NC4` was tested. Which IC50 did it give?
Answer: Its IC50 is greater than 500 nM.

Question: How did the IC50 turn out when `COc1ccc2[nH]c3c4[nH]c5ccccc5c4c4c(c3c2c1)C(=O)NC4` was run?
Answer: Its IC50 is greater than 500 nM.

Question: `CO[C@@H]1[C@H](N)C[C@H]2O[C@]1(C)n1c3ccccc3c3c4c(c5c6ccccc6n2c5c31)C(=O)NC4=O` was tested. Which IC50 did it give?
Answer: Its IC50 is 360 nM.

Question: `CN[C@@H]1C[C@H]2O[C@@](C)([C@@H]1OC)n1c3ccccc3c3c4c(c5c6ccccc6n2c5c31)C(=O)NC4=O` (stereo in doubt; 15) was tested. Which IC50 did it give?
Answer: Its IC50 is 20 nM.

Question: For `COC(=O)c1cccc2c1NC1(C[C@H]3O[C@]1(C)n1c4ccccc4c4c5c(c6c7ccccc7n3c6c41)C(=O)NC5)C(=O)O2` (stereo partly specified), which IC50 is on record?
Answer: The IC50 was greater than 500 nM.

Question: `C[C@H]1O[C@@H]2C[C@](O)([C@H]1O)n1c3ccccc3c3c4c(c5c6cc(O)ccc6n2c5c31)C(=O)NC4` was tested. Which IC50 did it give?
Answer: Its IC50 is 120 nM.

Question: How did the IC50 turn out when `O=C1NC(O)c2c1c1c3ccccc3[nH]c1c1[nH]c3ccccc3c21` (stereo unspecified) was run?
Answer: Its IC50 is greater than 500 nM.

Question: How did the IC50 turn out when `C[C@@H]1O[C@@H]2C[C@](O)([C@H]1O)n1c3ccccc3c3c4c(c5c6ccccc6n2c5c31)C(=O)NC4` was run?
Answer: The IC50 was greater than 500 nM.

Question: Which IC50 does the source give for `C[C@@H]1O[C@@H](n2c3ccc(O)cc3c3c4c(c5c6ccccc6[nH]c5c32)CNC4=O)[C@H](O)[C@H](O)[C@H]1O` here?
Answer: Its IC50 is 76 nM.

Question: `CC(C)(C)c1ccc2[nH]c3c4[nH]c5ccccc5c4c4c(c3c2c1)CNC4=O` was tested. Which IC50 did it give?
Answer: Its IC50 is greater than 500 nM.

Question: How did the IC50 turn out when `COc1ccc2[nH]c3c4[nH]c5ccc(O)cc5c4c4c(c3c2c1)C(=O)NC4=O` was run?
Answer: Its IC50 is 110 nM.

Question: Which IC50 does the source give for `C[C@@H]1O[C@@H](n2c3ccccc3c3c4c(c5c6ccccc6[nH]c5c32)CNC4=O)C[C@@H](N)[C@H]1OC(O)C1CO1` (stereo partly specified) here?
Answer: Its IC50 is 140 nM.

Question: Which IC50 does the source give for `CO[C@@H]1[C@H](N(C)C(N)=O)C[C@H]2O[C@]1(C)n1c3ccccc3c3c4c(c5c6ccccc6n2c5c31)C(=O)NC4` here?
Answer: The IC50 was 360 nM.

Question: For `COc1ccc2c(c1)c1c3c(c4c5ccccc5n(C)c4c1n2C)C(=O)N(C)C3=O`, which IC50 is on record?
Answer: Its IC50 is greater than 500 nM.

Question: Which IC50 does the source give for `COC(=O)[C@H]1C[C@H]2O[C@]1(C)n1c3ccccc3c3c4c(c5c6ccccc6n2c5c31)C(=O)NC4` here?
Answer: Its IC50 is 370 nM.

Question: For `CO[C@H]1NC(=O)c2c1c1c3ccccc3[nH]c1c1c2c2ccccc2n1[C@@H]1O[C@@H](C)[C@H](O)[C@@H](O)[C@H]1O`, which IC50 is on record?
Answer: The IC50 was greater than 500 nM.

Question: Which IC50 does the source give for `COC(=O)[C@@]1(O)C[C@H]2O[C@]1(C)n1c3ccccc3c3c4c(c5c6ccccc6n2c5c31)C(=O)NC4` [K-252A] here?
Answer: The IC50 was greater than 500 nM.

Question: `CN[C@@H]1C[C@H]2O[C@@](C)([C@@H]1OC)n1c3ccccc3c3c4c(c5c6ccccc6n2c5c31)C(=O)NC4=O` (stereo in doubt; 14) was tested. Which IC50 did it give?
Answer: Its IC50 is 310 nM.

Question: For `CC(=O)N[C@H]1C[C@H]2O[C@@](C)([C@@H]1O)n1c3ccccc3c3c4c(c5c6ccccc6n2c5c31)C(=O)NC4`, which IC50 is on record?
Answer: Its IC50 is 60 nM.

Question: How did the IC50 turn out when `C[C@]12O[C@H](C[C@@H](O)[C@H]1O)n1c3ccccc3c3c4c(c5c6ccccc6n2c5c31)CNC4=O` was run?
Answer: Its IC50 is 2880 nM.

Question: For `O=C1NC(=O)c2c1c1c3ccccc3[nH]c1c1[nH]c3ccccc3c21` [STAUROSPORINE AGLYCON], which IC50 is on record?
Answer: The IC50 was greater than 500 nM.

Question: With `CO[C@@H]1[C@@H](O)[C@@H](O)[C@H]2O[C@]1(C)n1c3ccccc3c3c4c(c5c6ccccc6n2c5c31)C(=O)NC4` as the molecule, how does the IC50 read?
Answer: The IC50 was 690 nM.

Question: How did the IC50 turn out when `COc1ccc2[nH]c3c4[nH]c5ccc(O)cc5c4c4c(c3c2c1)C(=O)NC4` was run?
Answer: The IC50 was 460 nM.

Question: For `COc1ccc2c(c1)[nH]c1c3[nH]c4ccccc4c3c3c(c21)C(=O)NC3=O`, which IC50 is on record?
Answer: Its IC50 is 620 nM.

Question: How did the IC50 turn out when `CO[C@@H]1C(C)(O)O[C@@H]2C[C@@]1(OC)n1c3ccccc3c3c4c(c5c6ccccc6n2c5c31)C(=O)NC4` (stereo partly specified) was run?
Answer: Its IC50 is greater than 500 nM.

Question: How did the IC50 turn out when `Cc1ccc2[nH]c3c4[nH]c5ccccc5c4c4c(c3c2c1)CNC4=O` was run?
Answer: The IC50 was greater than 500 nM.

Question: `CO[C@@H]1[C@@H](O)[C@@H](O)[C@H]2O[C@]1(C)n1c3ccccc3c3c4c(c5c6ccccc6n2c5c31)C(=O)N[C@@H]4O` was tested. Which IC50 did it give?
Answer: The IC50 was greater than 500 nM.

Question: For `COc1ccc2[nH]c3c4[nH]c5ccccc5c4c4c(c3c2c1)C(=O)NC4=O`, which IC50 is on record?
Answer: Its IC50 is 100 nM.

Question: Which IC50 does the source give for `CC(=O)N[C@H]1C[C@H](n2c3ccccc3c3c4c(c5c6ccccc6[nH]c5c32)CNC4=O)O[C@@H](C)[C@@H]1O` here?
Answer: The IC50 was 210 nM.

Question: Which IC50 does the source give for `COC1NC(=O)c2c1c1c3ccccc3[nH]c1c1[nH]c3ccccc3c21` (stereo unspecified) here?
Answer: The IC50 was greater than 500 nM.

Question: For `COC1=C(C)O[C@@H]2C[C@@]1(OC)n1c3ccccc3c3c4c(c5c6ccccc6n2c5c31)C(=O)NC4`, which IC50 is on record?
Answer: The IC50 was greater than 500 nM.

Question: How did the IC50 turn out when `COc1ccc2[nH]c3c4[nH]c5ccc(OC)cc5c4c4c(c3c2c1)C(=O)NC4=O` [GW296115X] was run?
Answer: Its IC50 is greater than 500 nM.

Question: Which IC50 does the source give for `C[C@@H]1O[C@@H]2C[C@](O)([C@H]1O)n1c3ccccc3c3c4c(c5c6cc(O)ccc6n2c5c31)C(=O)NC4` here?
Answer: The IC50 was 210 nM.

Question: Which IC50 does the source give for `CC(=O)N[C@@H]1C[C@H](n2c3ccccc3c3c4c(c5c6ccccc6[nH]c5c32)C(=O)NC4=O)O[C@@H](C)[C@@H]1O` here?
Answer: The IC50 was 2240 nM.
